Where a name gives a salt, the structure may show the parent alone.
Legend:
[1] = tested on: zebrafish embryos; assay: animal or person; conditions: Danio rerio
[2] = tested on: zebrafish embryos; assay: Zebrafish embryo test: lethality and dysmorphogenesis after exposure to a single oxidative stress-related compound; format: in vivo, Zebrafish (Danio rerio); conditions: for EC50: read-out: EC50 (effective concentration 50 for dysmorphogenesis)
Experimental: (§1) To characterize the effects on embryonic development produced by compounds related to OS, ZF embryos were exposed to OS inducers, modulators of antioxidant status and antioxidants. For compounds which were dissolved in DMSO and diluted with Danieau’s buffer, a vehicle negative control group with 0.05% DMSO in 0.3× Danieau’s buffer was assayed.
(§2) From 26 to 50 hpf, embryos were incubated with 0.3× Danieau’s buffer with or without DMSO, depending on the dissolution of the compound of study.
(§3) Exposure to OS inducers was conducted from 26 to 50 hpf to select the working concentrations of these compounds for the experimental design. In this case, from 2 to 26 hpf, embryos were incubated with Danieau’s buffer with or without DMSO, depending on the dissolution of the compound of study.
(§4) Exposure of ZF embryos was semi-static and was carried out in 6-well plates (Greiner Bio-one, Frickenhausen, Germany). Ten embryos per group were selected and randomly distributed into the wells and filled with 5mL of the corresponding solution of the compound. Embryos were incubated at 26 ± 1 °C with a dark–light cycle of 10–14 h. Renewal of the medium and of the solutions was made every 24 h. Evaluation of the embryos was performed at different time points. Lethality was determined at 8, 26, and 50 hpf based on egg coagulation, the absence of tail detachment, or somite formation and the absence of heartbeat. Dysmorphogenic effects were evaluated at 50 hpf by the total morphological score system described by. For each compound of study, at least three independent experiments were performed using embryos from different spawning events (n = 3).
(§5) The percentage of lethality and of dysmorphogenesis was calculated per compound at every tested concentration, and the concentration–response curves for these effects were plotted.

[3] = as above; format: in vivo, Zebrafish (Danio rerio); conditions: zebrafish, in vivo, read-out: LC50 (lethal concentration 50)
Experimental: as §1, §2, §3, §4, §5

[4] = in vivo; conditions: zebrafish
[5] = tested on: zebrafish embryos; assay: animal or person; conditions: Danio rerio, read-out: EC50 (95% CI) for dysmorphogenesis of tBOOH
[6] = tested on: zebrafish embryos; conditions: for Change of dysmorphogenic effects of LPS / Mortality of embryos exposed to tBOOH after pre-exposure / Shift of the LPS lethality concentration–effect curve / Shift of the TCHQ concentration–response curves for lethality and dysmorphogenesis / Shift of the tBOOH concentration–response curves (lethality and dysmorphogenesis): pre-exposure to the modulator at MTC; for Change of dysmorphogenic effects of LPS / Shift of the LPS lethality concentration–effect curve: then LPS, versus LPS alone; for Mortality of embryos exposed to tBOOH after pre-exposure / Shift of the tBOOH concentration–response curves (lethality and dysmorphogenesis): then tBOOH; for Shift of the TCHQ concentration–response curves for lethality and dysmorphogenesis: then TCHQ, versus TCHQ alone; for Shift of the tBOOH concentration–response curves (lethality and dysmorphogenesis): versus tBOOH alone
[7] = Danio rerio, exposure window 2–26 hpf, evaluated at 50 hpf
[8] = exposure window 2–26 hpf, not calculated, reason in footnote

| Molecule | Change of dysmorphogenic effects of LPS [6] | EC50 [2, 7] | MTC (maximum tolerable concentration) ([2]; exposure window 2–26 hpf) | Shift of the LPS lethality concentration–effect curve [6] | Shift of the TCHQ concentration–response curves for lethality and dysmorphogenesis [6] | Shift of the tBOOH concentration–response curves (lethality and dysmorphogenesis) [6] | LC50 [3, 8] | also measured |
| --- | --- | --- | --- | --- | --- | --- | --- | --- |
| Oc1c(Cl)c(Cl)c(O)c(Cl)c1Cl [Tetrachlorohydroquinone (TCHQ), Tetrachlorohydroquinone] |  |  |  |  |  |  |  | EC50 ([1]; read-out: EC50 (95% CI) for dysmorphogenesis of TCHQ): 8.84 µM; EC50 ([2]; Danio rerio): 3.9 µM; Compound-specific dysmorphogenic effect ([2]; exposure 26–50 hpf): produced an effect in the pigmentation of the embryos; LC50 ([3]; exposure window 26–50 hpf): 16 µM; LC50 [4]: 15.2 µM |
| CC(C)(C)OO [Tert-butyl hydroperoxide (tBOOH), Tert-butyl hydroperoxide] |  |  |  |  |  |  |  | EC50 ([1]; read-out: EC50 (95% CI) for dysmorphogenesis of tBOOH): 1640 µM; EC50 [5]: 1.64 mM; EC50 ([2]; Danio rerio, exposure window 26–50 hpf, evaluated at 50 hpf): 1600 µM |
| CC(=O)N[C@@H](CS)C(=O)O [N-acetyl-L-cysteine (NAC), N-acetyl-L-cysteine] | no significant effects were observed | 921 µM | 250 µM |  |  |  |  | Mortality of embryos exposed to tBOOH after pre-exposure [6]: no significant effects in mortality of the embryos were observed; LC50 (95% CI) of LPS after pre-exposure to the modulator ([6]; zebrafish, in vivo, pH 7.4): 51.6 µg/mL * (48.8–54.5); LC50 (95% CI) of TCHQ after pre-exposure to the modulator ([6]; zebrafish, in vivo, pH 7.4): 19.6 µM * (16.6–23.3); LC50 ([3]; exposure window 2–26 hpf): 1870 µM |
| (±)-α-tocopherol [Vit. E] |  |  | 100 µM |  |  |  |  | LC50 ([2]; exposure window 2–26 hpf, not calculated, reason in footnote, read-out: LC50 (lethal concentration 50)): > 30 µM |
| CCCCS(=N)(=O)CCC(N)C(=O)O (racemic) [DL-buthionine sulfoximine (BSO), DL-buthionine sulfoximine] | no significant effects were observed |  | 50 µM | shifted the lethality concentration–effect curves significantly | statistically significant drift in the concentration–effect curves for lethality and dysmorphogenesis to lower concentrations of TCHQ | a significant shift in the concentration–response curves to lower concentrations of tBOOH |  | EC50 ([2]; exposure window 2–26 hpf, evaluated at 50 hpf): 2720 µM |
| O=c1c(O)c(-c2ccc(O)c(O)c2)oc2cc(O)cc(O)c12 [Quercetin, quercetin hydrate] |  |  | 20 µM |  |  |  | > 30 µM |  |
| CCOC(=O)/C=C\C(=O)OCC [Diethyl maleate (DEM), diethyl maleate] | no significant effects were observed | 1.5 µM | 0.5 µM | shifted the lethality concentration–effect curves significantly | statistically significant drift in the concentration–effect curves for lethality and dysmorphogenesis to lower concentrations of TCHQ | a significant shift in the concentration–response curves to lower concentrations of tBOOH | < 100 µM |  |
| COC(=O)[C@@H](N)CCCNC(N)=N[N+](=O)[O-] [Nω-nitro L-arginine methyl ester hydrochloride] | significant reduction in dysmorphogenic effects | 44.4 µM | 5 µM | shifted the lethality concentration–effect curves significantly | significantly shifted to higher concentrations of TCHQ | significantly drifted the tBOOH concentration–response curves to higher concentrations | > 100 µM | Mortality of embryos exposed to tBOOH after pre-exposure [6]: no significant effects in mortality of the embryos were observed |

Source: publication PMC7463582, “Modulation and Protection Effects of Antioxidant Compounds against Oxidant Induced Developmental Toxicity in Zebrafish” (Antioxidants, 2020)
